Test [1] can be described thus: Antitumor activity against human MM487 cells xenografted in mouse assessed as tumor growth inhibition at 50 mg/kg, po bid administered 5 times a week for 3 weeks. It is filed as functional. To be noted: MM487, 504 h, read-out: TGI. Background: Xenograft models place foreign cells or tissue in a host animal.
The subject of test [2] is A2780. Description: Induction of cell cycle arrest in human A2780 cells assessed as accumulation of cells at G0/1 phase at 0.95 uM after 72 hrs by flow cytometry (reference value: 48.7%). It is filed as functional. On the technique in general: A flow cytometer gives signals particle by particle.
The test system of test [3] is NCI-H460. In words: Down-regulation of POLA1 protein expression in human NCI-H460 cells at 0.26 uM measured by Western blot analysis. In kind it is functional, cell-based.
Test [4] deals with T1, Protein deacetylase HDAC6 (Homo sapiens) (UniProt Q9UBN7).
T1 sequence (whole entry): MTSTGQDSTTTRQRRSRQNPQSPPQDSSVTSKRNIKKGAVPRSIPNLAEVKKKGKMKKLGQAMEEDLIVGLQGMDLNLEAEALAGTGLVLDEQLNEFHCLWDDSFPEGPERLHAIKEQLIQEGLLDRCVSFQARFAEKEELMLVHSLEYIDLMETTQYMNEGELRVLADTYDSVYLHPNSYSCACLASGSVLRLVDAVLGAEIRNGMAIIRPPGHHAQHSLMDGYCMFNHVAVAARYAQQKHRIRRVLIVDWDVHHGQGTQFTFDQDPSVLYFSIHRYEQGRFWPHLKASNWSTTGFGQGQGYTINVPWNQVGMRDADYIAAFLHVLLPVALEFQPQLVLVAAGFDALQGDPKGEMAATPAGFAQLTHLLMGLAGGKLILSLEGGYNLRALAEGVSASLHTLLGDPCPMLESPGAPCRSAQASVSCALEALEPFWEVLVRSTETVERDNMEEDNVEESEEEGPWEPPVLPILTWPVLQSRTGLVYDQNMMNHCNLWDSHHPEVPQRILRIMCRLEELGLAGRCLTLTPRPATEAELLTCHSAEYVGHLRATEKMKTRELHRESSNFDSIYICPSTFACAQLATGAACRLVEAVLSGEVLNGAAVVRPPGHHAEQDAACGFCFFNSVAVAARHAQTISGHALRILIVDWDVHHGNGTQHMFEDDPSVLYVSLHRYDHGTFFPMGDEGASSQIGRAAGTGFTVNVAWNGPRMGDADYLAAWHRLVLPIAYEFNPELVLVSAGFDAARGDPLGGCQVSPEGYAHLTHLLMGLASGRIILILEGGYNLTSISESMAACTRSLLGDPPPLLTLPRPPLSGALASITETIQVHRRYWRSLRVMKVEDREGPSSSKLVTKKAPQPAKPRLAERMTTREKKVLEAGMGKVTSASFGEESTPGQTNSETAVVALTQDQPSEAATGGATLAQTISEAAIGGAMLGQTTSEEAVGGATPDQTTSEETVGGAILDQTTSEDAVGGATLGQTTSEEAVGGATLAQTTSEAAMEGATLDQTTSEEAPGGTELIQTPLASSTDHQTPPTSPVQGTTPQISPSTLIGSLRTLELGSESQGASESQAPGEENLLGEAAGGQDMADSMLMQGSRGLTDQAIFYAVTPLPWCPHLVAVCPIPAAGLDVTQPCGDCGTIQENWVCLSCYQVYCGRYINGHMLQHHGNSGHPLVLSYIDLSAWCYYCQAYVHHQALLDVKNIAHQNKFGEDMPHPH
In words: Inhibition of HDAC6 in human NCI-H460 cells at high-dose assessed as increase in alpha-tubulin acetylation measured by Western blot analysis. It is filed as cell-based. In general terms: In western blotting, separated proteins are transferred to a membrane and probed.

For test [5], the target named is T2, Histone deacetylase 11 (Homo sapiens) (UniProt Q96DB2).
T2 sequence (whole entry): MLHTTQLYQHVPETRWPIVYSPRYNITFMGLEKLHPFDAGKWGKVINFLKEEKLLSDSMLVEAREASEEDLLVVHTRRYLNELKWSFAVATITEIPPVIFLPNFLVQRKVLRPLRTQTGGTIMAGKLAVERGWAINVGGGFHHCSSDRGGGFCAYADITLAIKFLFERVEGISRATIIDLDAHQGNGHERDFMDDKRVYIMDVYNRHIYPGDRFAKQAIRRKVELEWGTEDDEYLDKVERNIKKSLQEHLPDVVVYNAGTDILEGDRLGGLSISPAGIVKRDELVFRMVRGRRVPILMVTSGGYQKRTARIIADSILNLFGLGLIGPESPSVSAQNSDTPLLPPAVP
In words: Inhibition of HDAC11 in human A2780 cells at 0.1 to 0.4 uM assessed as induction of p53 acetylation and measured by Western blot analysis. In kind it is cell-based. As to conditions: dose 0.1-0.4 µM.

Test [6] deals with T2, Histone deacetylase 11 (Homo sapiens). In words: Inhibition of HDAC11 in human MM473 cells at 0.1 to 0.4 uM assessed as increase in p21 level and measured by Western blot analysis. It is filed as cell-based. To be noted: dose 0.1-0.4 µM.
Test [7] has as its system MM473. Description: Antitumor activity against human MM473 cells xenografted in mouse assessed as tumor growth inhibition at 50 mg/kg, po bid administered 5 times a week for 3 weeks. It is filed as functional. As to conditions: MM473, 504 h, read-out: TGI.
The test system of test [8] is Mus musculus. Description: Inhibition of POLA1 in mouse B16 cells xenografted C57BL/6 mouse assessed as increase in IFN-alpha levels at 50 mg/kg, po administered twice a day for 5 days measured by ELISA assay. In kind it is functional, organism-based. To be noted: time 5.0 day.
The test system of test [9] is NCI-H460. Description: Induction of cell cycle arrest in human NCI-H460 cells assessed as accumulation of cells at S phase at 0.25 uM after 72 hrs by flow cytometry (reference value: 32.1%). In kind it is functional.
Test [10] has as its system MM473. Description: Induction of DNA damage in human MM473 cells at 0.1 to 0.4 uM assessed as increase in p-H2AX levels and measured by Western blot analysis. It is filed as functional, cell-based. To be noted: dose 0.1-0.4 µM.
The test system of test [11] is NCI-H460. Description: Down-regulation of POLA1 mRNA expression in human NCI-H460 cells at 0.25 uM measured by qRT-PCR assay. In kind it is functional, cell-based.
The test system of test [12] is NCI-H460. In words: Induction of cell cycle arrest in human NCI-H460 cells assessed as accumulation of cells at G2/M phase at 0.25 uM after 72 hrs by flow cytometry (reference value: 21.1%). It is filed as functional.
Test [13] relates to MM473. Description: Induction of cell cycle arrest in human MM473-Luc cells assessed as accumulation of cells at G0/1 phase at 1.2 uM after 72 hrs by flow cytometry (reference value: 74.7%). In kind it is functional.
Test [14] deals with NCI-H460. Description: Induction of cell cycle arrest in human NCI-H460 cells assessed as accumulation of cells at sub-G1 phase at 0.25 uM after 72 hrs by flow cytometry (reference value: 1.1%). It is filed as functional.
For test [15], the system named is NCI-H460. In words: Induction of cell cycle arrest in human NCI-H460 cells assessed as accumulation of cells at S phase at 0.12 uM after 72 hrs by flow cytometry (reference value: 32.1%). It is filed as functional.
In test [16] the test system is NCI-H460. Description: Induction of cell cycle arrest in human NCI-H460 cells assessed as accumulation of cells at G0/1 phase at 0.12 uM after 72 hrs by flow cytometry (reference value: 46.8%). It is filed as functional.
Test [17] can be described thus: Induction of cell cycle arrest in human H460-R9A cells assessed as accumulation of cells at S phase at 2.2 uM after 72 hrs by flow cytometry (reference value: 34.5%). In kind it is functional.
The subject of test [18] is H460-R9A. In words: Antiproliferative activity against human H460-R9A cells at 0.75 to 12 uM after 72 hrs by MTT assay. It is filed as functional, cell-based. To be noted: dose 0.75-12 µM.

Activity calls are given as the source filed them. The rule behind the calls is not given here.

The values below come from ChEMBL document CHEMBL5154648, “Antitumor activity of novel POLA1-HDAC11 dual inhibitors” (Eur J Med Chem, 2022).

Consider `CC(Oc1ccc(-c2ccc(C=CC(=O)O)cc2)cc1C12CC3CC(CC(C3)C1)C2)C(=O)NO` (stereo not drawn), for which the inhibition in vivo at 50 mg/kg in test [1] was 72%. In addition, the Activity in test [2] stood at 10.8%. For the same compound, the result in test [3] was Active. For the same compound, the inhibition result in [4] and in test [5] was “Active” each time.

For `O=C(O)C=Cc1ccc(-c2ccc(OCC(=O)NO)c(C34CC5CC(CC(C5)C3)C4)c2)cc1`, the inhibition entry in test [6] and in test [8] was “Active” throughout. Also, the inhibition in vivo at 50 mg/kg in [7] is 77%. In addition, the Activity turned out to be 80.9% in [9], 2.8% in test [12], 23% in [13] and 12.1% in test [14]. Further, the outcome in [10] and in test [11] was Active.

For the compound `O=C(O)C=Cc1ccc(-c2ccc(O)c(C34CC5CC(CC(C5)C3)C4)c2)cc1`, the Activity is given as 79.7% in test [15], 13.8% in test [16] and 63.4% in test [17]. Besides, the outcome in test [18] was Active.
